Molecules are shown by their SMILES.

Vascular endothelial growth factor receptor 2, sequence (P35968 whole entry): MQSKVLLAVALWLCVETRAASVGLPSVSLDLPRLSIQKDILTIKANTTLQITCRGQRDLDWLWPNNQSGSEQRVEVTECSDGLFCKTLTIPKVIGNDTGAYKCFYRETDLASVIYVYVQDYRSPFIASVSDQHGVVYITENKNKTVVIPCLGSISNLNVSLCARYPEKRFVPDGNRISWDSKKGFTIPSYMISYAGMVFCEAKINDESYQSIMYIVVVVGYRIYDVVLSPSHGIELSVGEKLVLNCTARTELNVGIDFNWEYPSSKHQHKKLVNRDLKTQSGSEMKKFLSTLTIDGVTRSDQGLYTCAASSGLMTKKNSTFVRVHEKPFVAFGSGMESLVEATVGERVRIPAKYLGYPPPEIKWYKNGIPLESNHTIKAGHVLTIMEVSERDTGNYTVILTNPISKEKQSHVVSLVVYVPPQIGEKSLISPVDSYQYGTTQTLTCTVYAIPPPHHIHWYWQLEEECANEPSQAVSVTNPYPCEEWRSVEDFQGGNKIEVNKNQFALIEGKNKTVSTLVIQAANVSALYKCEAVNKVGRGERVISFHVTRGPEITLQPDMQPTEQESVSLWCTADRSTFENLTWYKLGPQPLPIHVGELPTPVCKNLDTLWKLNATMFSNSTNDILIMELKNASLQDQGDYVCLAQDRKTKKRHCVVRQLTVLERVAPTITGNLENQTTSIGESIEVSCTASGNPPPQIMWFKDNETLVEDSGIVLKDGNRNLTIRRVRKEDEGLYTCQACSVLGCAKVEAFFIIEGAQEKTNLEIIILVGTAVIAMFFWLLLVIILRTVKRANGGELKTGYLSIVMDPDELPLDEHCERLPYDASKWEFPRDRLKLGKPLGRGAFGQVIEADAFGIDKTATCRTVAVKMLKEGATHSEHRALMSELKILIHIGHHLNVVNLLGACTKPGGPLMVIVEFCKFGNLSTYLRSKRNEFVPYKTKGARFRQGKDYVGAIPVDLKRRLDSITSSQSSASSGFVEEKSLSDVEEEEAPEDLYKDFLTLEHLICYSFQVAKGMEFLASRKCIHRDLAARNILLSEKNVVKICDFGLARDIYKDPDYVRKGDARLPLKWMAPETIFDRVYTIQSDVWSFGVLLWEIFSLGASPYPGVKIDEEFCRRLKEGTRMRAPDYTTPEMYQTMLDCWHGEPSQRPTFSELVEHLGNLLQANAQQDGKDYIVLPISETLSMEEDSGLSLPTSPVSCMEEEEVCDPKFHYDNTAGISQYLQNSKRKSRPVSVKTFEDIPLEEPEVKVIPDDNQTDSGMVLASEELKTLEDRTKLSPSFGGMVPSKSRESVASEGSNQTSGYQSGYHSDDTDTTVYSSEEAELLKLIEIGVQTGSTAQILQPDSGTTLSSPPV
Ephrin type-A receptor 2, sequence (P29317 whole entry): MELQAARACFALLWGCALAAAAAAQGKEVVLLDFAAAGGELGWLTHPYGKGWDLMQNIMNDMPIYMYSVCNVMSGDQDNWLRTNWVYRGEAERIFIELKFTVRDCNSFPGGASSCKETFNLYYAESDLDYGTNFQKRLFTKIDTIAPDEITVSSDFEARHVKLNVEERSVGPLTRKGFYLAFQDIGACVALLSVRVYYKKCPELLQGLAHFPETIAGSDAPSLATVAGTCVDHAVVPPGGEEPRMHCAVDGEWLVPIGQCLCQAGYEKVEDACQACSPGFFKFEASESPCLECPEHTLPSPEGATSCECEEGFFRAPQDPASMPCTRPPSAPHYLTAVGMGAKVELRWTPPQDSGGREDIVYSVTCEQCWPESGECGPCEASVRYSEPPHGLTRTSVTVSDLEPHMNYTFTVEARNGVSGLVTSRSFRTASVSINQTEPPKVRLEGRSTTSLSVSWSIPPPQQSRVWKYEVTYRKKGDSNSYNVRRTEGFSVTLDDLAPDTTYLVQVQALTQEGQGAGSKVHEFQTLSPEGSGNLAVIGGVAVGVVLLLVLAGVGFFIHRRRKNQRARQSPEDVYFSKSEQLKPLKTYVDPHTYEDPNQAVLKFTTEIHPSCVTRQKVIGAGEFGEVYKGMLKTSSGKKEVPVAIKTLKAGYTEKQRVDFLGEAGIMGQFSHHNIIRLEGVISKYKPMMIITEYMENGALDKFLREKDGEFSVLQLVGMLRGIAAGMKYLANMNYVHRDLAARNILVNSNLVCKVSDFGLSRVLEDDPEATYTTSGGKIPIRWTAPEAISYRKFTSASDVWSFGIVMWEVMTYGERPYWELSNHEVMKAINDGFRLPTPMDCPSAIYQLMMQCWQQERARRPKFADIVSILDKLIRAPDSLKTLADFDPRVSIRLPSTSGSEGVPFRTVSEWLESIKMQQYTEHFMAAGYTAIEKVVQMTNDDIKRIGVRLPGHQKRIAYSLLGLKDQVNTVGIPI

One assay concerns the target Vascular endothelial growth factor receptor 2 (Homo sapiens, UniProt P35968). In words: AlphaScreen Assay. Background: In Alpha technology, singlet oxygen from a donor bead excites a nearby acceptor bead.
As a reminder, the IC50 is the point on the concentration scale where inhibition reaches its midpoint. Consider `COc1cc(OC)c(Nc2ncnc3cc(O[C@@H]4CO[C@@H]5[C@H]4OC[C@H]5F)c(OC)cc23)cc1Cl` [US9796704, Entry 135], for which the IC50 entry is “in the range around 525 nM”.

In the case of `COc1cc2c(Nc3cc(Cl)ccc3Cl)ncnc2cc1O[C@@H]1CO[C@@H]2[C@H]1OC[C@H]2F` [US9796704, Entry 118], the half-inhibitory concentration (IC50) entry was “in the range around 525 nM”.

For the molecule `COc1cc2c(Nc3ccc(Cl)c(Cl)c3)ncnc2cc1OCc1noc(C2CCCNC2)n1` (centres undefined) [US9796704, Entry 153], the IC50 result is “in the range around 525 nM”.

In the case of `COc1cc2c(Nc3ccc(Cl)c(Cl)c3)ncnc2cc1OCc1nc(-c2cccnc2)cs1` [US9796704, Entry 201], the half-maximal inhibitory concentration (IC50) result was “in the range around 525 nM”.

Take `COc1cc2c(Nc3ccc(Br)c(Cl)c3Cl)ncnc2cc1O[C@@H]1CO[C@@H]2[C@H]1OC[C@H]2F` [US9796704, Entry 103]: the IC50 entry is “in the range around 525 nM”.

For the molecule `COc1cc2c(Nc3ccc(Cl)c(Cl)c3)ncnc2cc1OCCC1OCCCO1` [US9796704, Entry 189], the IC50 entry was “in the range around 525 nM”.

As for `COc1cc2c(Nc3ccc(Cl)c(Cl)c3)ncnc2cc1OCC(=O)N1CCOCC1` [US9796704, Entry 195], the IC50 result is “in the range around 525 nM”.

In the case of `COc1cc2c(Nc3ccc(Cl)c(Cl)c3)ncnc2cc1OCC1CCCO1` (centres undefined) [US9796704, Entry 183], the IC50 result is “in the range around 525 nM”.

Turning to `COc1cc2c(Nc3ccc(Cl)c(Cl)c3)ncnc2cc1OCc1csc(C2CCN(C)CC2)n1` [US9796704, Entry 214], the concentration for half-maximal inhibition (IC50) result was “in the range around 525 nM”.

`COc1cc2c(Nc3ccc(Cl)c(Cl)c3)ncnc2cc1OCc1noc(C2CCCN(C)C2)n1` (centres undefined) [US9796704, Entry 156]: the IC50 entry was “in the range around 525 nM”.

Consider `COc1cc2c(Nc3cccc(Cl)c3F)ncnc2cc1O[C@H]1CO[C@H]2[C@@H]1OC[C@@H]2OC` [US9796704, Entry 71], for which the concentration for half-maximal inhibition (IC50) result was “in the range around 525 nM”.

Consider `COc1cc2c(Nc3ccc(Br)c(Cl)c3)ncnc2cc1O[C@H]1CO[C@@H]2C3OC(C)(C)O[C@H]3O[C@H]12` (some centres undefined) [US9796704, Entry 80], for which the IC50 result is “in the range around 525 nM”.

With `COc1cc2c(Nc3ccc(Cl)c(Cl)c3)ncnc2cc1OCc1nc(N2CCOCC2)no1` [US9796704, Entry 205], the half-maximal inhibitory concentration (IC50) result is “in the range around 525 nM”.

With `COc1cc2c(Nc3cc(Cl)c(Cl)cc3F)ncnc2cc1O[C@@H]1CO[C@@H]2[C@H]1OC[C@H]2F` [US9796704, Entry 105], the concentration for half-maximal inhibition (IC50) result is “in the range around 525 nM”.

For the molecule `COc1cc2c(Nc3ccc(Cl)c(Cl)c3)ncnc2cc1OCc1nc(N2CCN(C(=O)OC(C)(C)C)CC2)no1` [US9796704, Entry 215], the IC50 result is “in the range around 525 nM”.

Regarding `CCN1CCOC(COc2cc3ncnc(Nc4ccc(Cl)c(Cl)c4)c3cc2OC)C1` (centres undefined) [US9796704, Entry 212], the IC50 result is “in the range around 10500 nM”.

Consider `CCN1CCCCC1c1nc(COc2cc3ncnc(Nc4ccc(Cl)c(Cl)c4)c3cc2OC)no1` (centres undefined) [US9796704, Entry 219], for which the concentration for half-maximal inhibition (IC50) entry is “in the range around 525 nM”.

As to `COc1cc2c(Nc3ccc(Cl)c(Cl)c3)ncnc2cc1OCc1noc(C2CCN(C)CC2)n1` [US9796704, Entry 142], the IC50 entry was “in the range around 525 nM”.

As to `COc1cc2c(Nc3ccc(Cl)c(Cl)c3)ncnc2cc1OCC1CCC1` [US9796704, Entry 187], the IC50 entry is “in the range around 525 nM”.

As for `COc1cc2c(Nc3ccc(Cl)c(Cl)c3)ncnc2cc1OCC1CN(Cc2ccccc2)CCO1` (centres undefined) [US9796704, Entry 147], the IC50 result is “in the range around 525 nM”.

For the molecule `COc1cc2c(Nc3ccc(Cl)c(Cl)c3)ncnc2cc1OCCN1CCCCC1` [US9796704, Entry 192], the 50% inhibitory concentration (IC50) result was “in the range around 525 nM”.

For the molecule `COc1cc2c(Nc3ccc(Cl)c(Cl)c3)ncnc2cc1OCc1noc(C2CCCCN2)n1` (centres undefined) [US9796704, Entry 145], the IC50 result is “in the range around 525 nM”.

Consider `COc1cc2c(Nc3ccc(Cl)c(Cl)c3)ncnc2cc1OCC1CC1` [US9796704, Entry 182], for which the IC50 entry was “in the range around 525 nM”.

Regarding `COc1cc2c(Nc3ccc(Cl)c(Cl)c3)ncnc2cc1OCC1CN(C)CCO1` (centres undefined) [US9796704, Entry 151], the IC50 result is “in the range around 525 nM”.

For the molecule `COc1cc2c(Nc3cc(Cl)c(Br)cc3F)ncnc2cc1OC[C@H]1CN2CCOCC2CO1` (some centres undefined) [US9796704, Entry 20], the IC50 is less than 50 nM.

Consider `COc1cc2c(Nc3ccc(Cl)c(Cl)c3)ncnc2cc1OCc1cscn1` [US9796704, Entry 170], for which the concentration for half-maximal inhibition (IC50) result was “in the range around 525 nM”.

`COc1cc2c(Nc3ccc(Cl)c(Cl)c3)ncnc2cc1OCCC1OCCO1` [US9796704, Entry 188]: the half-maximal inhibitory concentration (IC50) entry was “in the range around 525 nM”.

For the molecule `COc1cc2c(Nc3ccc(Cl)c(Cl)c3)ncnc2cc1OCc1nc(-c2ccc(O)c(C(N)=O)c2)cs1` [US9796704, Entry 200], the half-maximal inhibitory concentration (IC50) entry is “in the range around 525 nM”.

Consider `COc1cc2c(Nc3ccc(Cl)c(Cl)c3)ncnc2cc1OCc1noc(C2CCCCN2C)n1` (centres undefined) [US9796704, Entry 154], for which the IC50 result is “in the range around 525 nM”.

As to `COc1cc2c(Nc3ccc(Cl)c(Cl)c3)ncnc2cc1OCCN1CCOCC1` [US9796704, Entry 190], the half-inhibitory concentration (IC50) result was “in the range around 525 nM”.

Take `COc1cc2c(Nc3ccc(Cl)c(Cl)c3)ncnc2cc1OCc1noc(-c2ccc(C(F)(F)F)cc2)n1` [US9796704, Entry 167]: the IC50 entry was “in the range around 525 nM”.

On to `COc1cc2c(Nc3cc(Cl)c(Cl)cc3F)ncnc2cc1OC[C@@H]1CO[C@H]2[C@@H]1OC[C@@H]2OC` [US9796704, Entry 48], for which the IC50 result is “in the range around 10500 nM”.

In the case of `COc1cc2c(Nc3ccc(Br)c(Cl)c3)ncnc2cc1O[C@H]1CO[C@@H]2CCO[C@H]12` [US9796704, Entry 77], the half-maximal inhibitory concentration (IC50) entry was “in the range around 525 nM”.

With `COc1cc2c(Nc3ccc(Cl)c(Cl)c3)ncnc2cc1OCC1CCCCC1` [US9796704, Entry 186], the half-maximal inhibitory concentration (IC50) result was “in the range around 525 nM”.

As to `COc1cc2c(Nc3ccc(Cl)c(Cl)c3)ncnc2cc1OCc1csc(C2CCNCC2)n1` [US9796704, Entry 213], the IC50 result was “in the range around 525 nM”.

For `COc1cc2c(Nc3ccc(Cl)c(Cl)c3)ncnc2cc1OCc1nc(-c2ccccn2)cs1` [US9796704, Entry 202], the IC50 result is “in the range around 525 nM”.

As to `COc1cc2c(Nc3ccc(Cl)c(Cl)c3)ncnc2cc1OCc1nc(CN2CCOCC2)cs1` [US9796704, Entry 209], the half-inhibitory concentration (IC50) result is “in the range around 525 nM”.

For `CCO[C@H]1CO[C@H]2[C@@H]1OC[C@@H]2Oc1cc2ncnc(Nc3ccc(Br)c(Cl)c3)c2cc1OC` [US9796704, Entry 74], the concentration for half-maximal inhibition (IC50) result is “in the range around 525 nM”.

`COc1cc2c(Nc3ccc(Cl)c(Cl)c3)ncnc2cc1OCc1nc2c(s1)CNCC2` [US9796704, Entry 208]: the IC50 result is “in the range around 525 nM”.

As to `COc1cc2c(Nc3ccc(Cl)c(Cl)c3)ncnc2cc1OCc1nc(N(C)C)no1` [US9796704, Entry 206], the half-maximal inhibitory concentration (IC50) result was “in the range around 525 nM”.

As to `COc1cc2c(Nc3ccc(Cl)c(Cl)c3)ncnc2cc1OCc1nc(CN2CCN(C)CC2)cs1` [US9796704, Entry 207], the concentration for half-maximal inhibition (IC50) entry is “in the range around 525 nM”.

In the case of `COc1cc2c(Nc3ccc(Cl)c(Cl)c3)ncnc2cc1OCCC1CCCCC1` [US9796704, Entry 185], the 50% inhibitory concentration (IC50) result was “in the range around 525 nM”.

As to `COc1cc2c(Nc3ccc(Cl)c(Cl)c3)ncnc2cc1OC1CCCC1` [US9796704, Entry 184], the half-maximal inhibitory concentration (IC50) result was “in the range around 525 nM”.

For the molecule `COc1cc2c(Nc3ccc(F)cc3)ncnc2cc1O[C@@H]1CO[C@@H]2[C@H]1OC[C@H]2F` [US9796704, Entry 115], the concentration for half-maximal inhibition (IC50) result is “in the range around 10500 nM”.

For the molecule `COc1cc2c(Nc3cccc(Cl)c3C)ncnc2cc1O[C@H]1CO[C@H]2[C@@H]1OC[C@@H]2OC` [US9796704, Entry 76], the IC50 result is “in the range around 525 nM”.

Consider `COc1cc2c(Nc3ccc(Cl)c(Cl)c3)ncnc2cc1OCCN1CCCC1` [US9796704, Entry 191], for which the IC50 result is “in the range around 525 nM”.

Regarding `COc1cc2c(Nc3cccc(Br)c3C)ncnc2cc1O[C@H]1CO[C@H]2[C@@H]1OC[C@@H]2OC` [US9796704, Entry 75], the IC50 entry is “in the range around 525 nM”.

A further assay concerns the target Ephrin type-A receptor 2 (Homo sapiens, UniProt P29317). In words: AlphaScreen Assay.
In the case of `COc1cc(OC)c(Nc2ncnc3cc(O[C@@H]4CO[C@@H]5[C@H]4OC[C@H]5F)c(OC)cc23)cc1Cl` [US9796704, Entry 135], the IC50 entry is “in the range around 525 nM”.

On to `COc1cc2c(Nc3ccc(Cl)c(Cl)c3)ncnc2cc1OCc1noc(CN(C)C)n1` [US9796704, Entry 138], for which the half-maximal inhibitory concentration (IC50) entry was “in the range around 525 nM”.

`COc1cc2c(Nc3ccc(Cl)c(Cl)c3)ncnc2cc1OCc1noc(C2CCCNC2)n1` (centres undefined) [US9796704, Entry 153]: the IC50 entry was “in the range around 525 nM”.

As for `COc1cc2c(Nc3ccc(Br)c(Cl)c3Cl)ncnc2cc1O[C@@H]1CO[C@@H]2[C@H]1OC[C@H]2F` [US9796704, Entry 103], the half-inhibitory concentration (IC50) result was “in the range around 525 nM”.

As to `COc1cc2c(Nc3ccc(Cl)c(Cl)c3)ncnc2cc1OCc1noc(C2CCCN(C)C2)n1` (centres undefined) [US9796704, Entry 156], the half-maximal inhibitory concentration (IC50) entry is “in the range around 525 nM”.

Take `COc1cc2c(Nc3ccc(Br)c(Cl)c3)ncnc2cc1O[C@H]1CO[C@@H]2C3OC(C)(C)O[C@H]3O[C@H]12` (some centres undefined) [US9796704, Entry 80]: the concentration for half-maximal inhibition (IC50) entry was “in the range around 525 nM”.

As to `COc1cc2c(Nc3cc(Cl)c(Cl)cc3F)ncnc2cc1O[C@@H]1CO[C@@H]2[C@H]1OC[C@H]2F` [US9796704, Entry 105], the IC50 result is “in the range around 525 nM”.

Take `COc1cc2c(Nc3cc(F)c(Br)c(Cl)c3)ncnc2cc1O[C@@H]1CO[C@@H]2[C@H]1OC[C@H]2F` [US9796704, Entry 104]: the half-maximal inhibitory concentration (IC50) result is “in the range around 525 nM”.

Take `COc1cc2c(Nc3ccc(Cl)c(Cl)c3)ncnc2cc1OCc1noc(C2CCN(C)CC2)n1` [US9796704, Entry 142]: the IC50 entry is “in the range around 525 nM”.

On to `COc1cc2c(Nc3ccc(Cl)c(Cl)c3)ncnc2cc1OCC1CN(Cc2ccccc2)CCO1` (centres undefined) [US9796704, Entry 147], for which the IC50 entry is “in the range around 10500 nM”.

`COc1cc2c(Nc3ccc(Cl)c(Cl)c3)ncnc2cc1OCc1noc(C2CCCCN2)n1` (centres undefined) [US9796704, Entry 145]: the IC50 entry was “in the range around 10500 nM”.

For `COc1cc2c(Nc3ccc(Cl)c(Cl)c3)ncnc2cc1OCc1nc(CN2CCN(C)CC2)no1` [US9796704, Entry 140], the half-inhibitory concentration (IC50) result is “in the range around 525 nM”.

On to `COc1cc2c(Nc3ccc(Cl)c(Cl)c3)ncnc2cc1OCc1noc(C)c1-c1ccccc1` [US9796704, Entry 161], for which the concentration for half-maximal inhibition (IC50) entry is “in the range around 525 nM”.

As for `COc1cc2c(Nc3ccc(Cl)c(Cl)c3)ncnc2cc1OCc1noc(C2CCCCN2C)n1` (centres undefined) [US9796704, Entry 154], the IC50 entry is “in the range around 525 nM”.

With `COc1cc2c(Nc3ccc(Br)c(Cl)c3Cl)ncnc2cc1OC[C@@H]1CN2CCC[C@H]2CO1` [US9796704, Entry 39], the IC50 result was “in the range around 525 nM”.

As for `COc1cc2c(Nc3ccc(Cl)c(Cl)c3)ncnc2cc1OCC1CN(C)CCCO1` (centres undefined) [US9796704, Entry 155], the IC50 result was “in the range around 525 nM”.

With `COc1cc2c(Nc3ccc(Cl)c(Cl)c3)ncnc2cc1OC[C@H]1CN2CCC[C@@H]2CO1` [US9796704, Entry 31], the IC50 is less than 50 nM.

These data come from BindingDB's records for patent US9796704 (SYMPHONY EVOLUTION, INC., 2017).
